Reference: PubChem BioAssay AID2060508 (Molecular Pharmacology Branch, DTP, NCI, 2025)

System: 454973-116-R2-J3-PDC spheroids, viability, % test/control
Test: Anticancer human tumor 454973-116-R2-J3-PDC patient-derived pancreatic carcinoma cell line growth inhibition [GQUAD]
Settings: spheroids with HUVEC and MSC; for IC50: curve of first compound; for viability, T/C: stronger effect = lower value
Excerpt: DNA G-quadruplex Stabilizer Agents in Combinations in Complex Spheroids
A high-throughput screen of multi-cell type tumor spheroids was designed to identify active combinations of DNA G-quadruplex stabilizer agents and targeted small molecules. Complex spheroids include a stromal component modeled by human endothelial cells (HUVEC) and fibroblasts modeled by human mesenchymal stem cells (MSCs). The concentration ranges selected for each drug and investigational agent were based upon clinically achievable concentrations if the clinical Cmax of the agent was known.
Compounds. The drugs and investigational agents: pidnarulex (CX-5461; NSC782164), APTO-253 (NSC789042), BRACO-19 (NSC847499), peposertib (NSC802822), ceralasertib (NSC780249), elimusertib (NSC800525), camonsertib (NSC841442), AZD-1390 (NSC803789), olaparib (NSC753686), talazoparib (NSC767125), ART-558 (NSC835418), sotorasib (NSC818433), MRTX-1133 (NSC836407), SN-38 (NSC673596), topotecan (NSC609699), etoposide (NSC141540), doxorubicin (NSC123127), gemcitabine (NSC613327), 5-fluorouracil (NSC19893), paclitaxel (NSC125973), vemurafenib (NSC761431), panobinostat (NSC761190), R-306465 (JNJ-16241199; NSC773264), adavosertib (NSC754352), TP-3654 (NSC805149), carboplatin (NSC241240), KSQ-4279 (NSC840948), and staurosporine (NSC755774) were obtained from the National Cancer Institute (NCI) Developmental Therapeutics Program Chemical Repository (34). The FDA-approved anticancer drug set is available from the NCI Developmental Therapeutics Program. […] The stock solutions were prepared in dimethyl sulfoxide (DMSO, Sigma-Aldrich, St. Louis, MO, cat. D2650) at 800-fold the tested concentration and stored at -70 degrees C prior to their use. All drugs and investigational agents were tested over a range starting from a high concentration at or near the clinical Cmax and decreasing in half-log increments. If the clinical Cmax for an agent had not been determined, the highest concentration tested was 10 microM.
2.3 Cell Culture. All cells were maintained in an incubator at 37 degrees C and 5% CO2 with 95% humidity. The PDC lines were cultured according to standard operating procedures established by the NCI PDMR. All PDCs were thawed and cultured in Matrigel-coated flasks prepared with a working solution of 1X Ham's F-12 nutrient mix, without supplementation (Invitrogen, cat. 11765054), 100 U/mL penicillin-streptomycin (Invitrogen, cat. 15140122), and 2.5% Matrigel (Corning Inc., cat. 354248) for the first three passages. The 857933-349-R-J2-PDC line was cultured in 6C/Colon 1B media, which includes advanced DMEM/F-12 (Thermo Fisher Scientific, cat. 12634028), 10 mM HEPES (Thermo Fisher Scientific, cat. 15630080), 1X GlutaMAX supplement (Thermo Fisher Scientific, cat. 35050061), 0.1 mg/mL primocin (InvivoGen, cat. ant-pm-2), 10% defined fetal bovine serum, heat inactivated (HyClone Laboratories Inc., cat. SH30070.03HI), 50% L-WRN conditioned media (ATCC, cat. CRL-3276), 1.25 mM N-Acetyl-L-cysteine (Sigma-Aldrich, cat. A9165), 10 mM nicotinamide (Sigma-Aldrich, cat. N0636), 1X B-27 supplement (Thermo Fisher Scientific, cat. 17504044), 1X N-2 supplement (Thermo Fisher Scientific, cat. 17502048), 10 microM Y-27632 dihydrochloride (Tocris Bioscience, cat. 1254), and 50 ng/mL human EGF recombinant protein (Thermo Fisher Scientific, cat. PHG0311). The 485176-168-R4-J1-PDC line was cultured in Panc media, which includes all 6C/Colon 1B media components plus 100 ng/mL human FGF-10 (Thermo Fisher Scientific, cat. 100-26), 500 nM SB-431542 (Selleckchem, cat. S1067), and gastrin (Tocris, cat. 3006).
[…]

[1] = second compound 0.0316 µM, first compound 0.0316 µM
[2] = second compound 0.0316 µM, first compound 0.316 µM
[3] = second compound 0.1 µM, first compound 0.0316 µM
[4] = second compound 0.1 µM, first compound 0.316 µM
[5] = second compound 0.316 µM, first compound 0.0316 µM
[6] = second compound 0.316 µM, first compound 0.316 µM
[7] = second compound 1 µM, first compound 0.0316 µM
[8] = second compound 1 µM, first compound 0.316 µM
[9] = second compound 3.16 µM, first compound 0.0316 µM
[10] = second compound 3.16 µM, first compound 0.316 µM
[11] = second compound 10 µM, first compound 0.0316 µM
[12] = second compound 10 µM, first compound 0.316 µM
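Note: spheroids exposed to compounds for seven days.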

## Cc1cccc(N(C)C(=O)C2C(O)CCN2c2nc(C)cc(C(F)(F)F)c2C#N)c1 (centres undefined) + CN(C)c1ccc(Nc2c3ccc(NC(=O)CCN4CCCC4)cc3nc3cc(NC(=O)CCN4CCCC4)ccc23)cc1
Second compound 0.0316 µM
  IC50: > 10 µM
Second compound 0.1 µM
  IC50: > 10 µM
Second compound 0.316 µM
  IC50: > 10 µM
Second compound 1 µM
  IC50: > 10 µM
Second compound 3.16 µM
  IC50: > 10 µM
Second compound 10 µM
  IC50: > 10 µM
[1]
  viability, T/C: 106%
Second compound 0.0316 µM, first compound 0.1 µM
  viability, T/C: 102%
[2]
  viability, T/C: 103%
Second compound 0.0316 µM, first compound 1 µM
  viability, T/C: 98.1%
Second compound 0.0316 µM, first compound 3.16 µM
  viability, T/C: 109%
Second compound 0.0316 µM, first compound 10 µM
  viability, T/C: 100%
[3]
  viability, T/C: 102%
Second compound 0.1 µM, first compound 0.1 µM
  viability, T/C: 106%
[4]
  viability, T/C: 98.6%
Second compound 0.1 µM, first compound 1 µM
  viability, T/C: 98%
Second compound 0.1 µM, first compound 3.16 µM
  viability, T/C: 92.6%
Second compound 0.1 µM, first compound 10 µM
  viability, T/C: 105%
[5]
  viability, T/C: 102%
Second compound 0.316 µM, first compound 0.1 µM
  viability, T/C: 92.9%
[6]
  viability, T/C: 97.7%
Second compound 0.316 µM, first compound 1 µM
  viability, T/C: 103%
Second compound 0.316 µM, first compound 3.16 µM
  viability, T/C: 93.9%
Second compound 0.316 µM, first compound 10 µM
  viability, T/C: 93.8%
[7]
  viability, T/C: 93.4%
Second compound 1 µM, first compound 0.1 µM
  viability, T/C: 99.8%
[8]
  viability, T/C: 92%
Second compound 1 µM, first compound 1 µM
  viability, T/C: 77.8%
Second compound 1 µM, first compound 3.16 µM
  viability, T/C: 92%
Second compound 1 µM, first compound 10 µM
  viability, T/C: 100%
[9]
  viability, T/C: 92.5%
Second compound 3.16 µM, first compound 0.1 µM
  viability, T/C: 90%
[10]
  viability, T/C: 85%
Second compound 3.16 µM, first compound 1 µM
  viability, T/C: 70.4%
Second compound 3.16 µM, first compound 3.16 µM
  viability, T/C: 86.1%
Second compound 3.16 µM, first compound 10 µM
  viability, T/C: 84.4%
[11]
  viability, T/C: 74%
Second compound 10 µM, first compound 0.1 µM
  viability, T/C: 74.7%
[12]
  viability, T/C: 60.5%
Second compound 10 µM, first compound 1 µM
  viability, T/C: 72.4%
Second compound 10 µM, first compound 3.16 µM
  viability, T/C: 74.5%
Second compound 10 µM, first compound 10 µM
  viability, T/C: 65.1%

## Cn1ncnc1[C@H]1c2n[nH]c(=O)c3cc(F)cc(c23)N[C@@H]1c1ccc(F)cc1 + CN(C)c1ccc(Nc2c3ccc(NC(=O)CCN4CCCC4)cc3nc3cc(NC(=O)CCN4CCCC4)ccc23)cc1
Second compound 0.0316 µM
  IC50: > 0.316 µM
Second compound 0.1 µM
  IC50: > 0.316 µM
Second compound 0.316 µM
  IC50: > 0.316 µM
Second compound 1 µM
  IC50: > 0.316 µM
Second compound 3.16 µM
  IC50: > 0.316 µM
Second compound 10 µM
  IC50: > 0.316 µM
Second compound 0.0316 µM, first compound 0.000999 µM
  viability, T/C: 106%
Second compound 0.0316 µM, first compound 0.00316 µM
  viability, T/C: 94.7%
Second compound 0.0316 µM, first compound 0.00999 µM
  viability, T/C: 94.2%
[1]
  viability, T/C: 87%
Second compound 0.0316 µM, first compound 0.0999 µM
  viability, T/C: 90.9%
[2]
  viability, T/C: 80.7%
Second compound 0.1 µM, first compound 0.000999 µM
  viability, T/C: 103%
Second compound 0.1 µM, first compound 0.00316 µM
  viability, T/C: 94%
Second compound 0.1 µM, first compound 0.00999 µM
  viability, T/C: 96.6%
[3]
  viability, T/C: 89.4%
Second compound 0.1 µM, first compound 0.0999 µM
  viability, T/C: 81.6%
[4]
  viability, T/C: 72.3%
Second compound 0.316 µM, first compound 0.000999 µM
  viability, T/C: 95.2%
Second compound 0.316 µM, first compound 0.00316 µM
  viability, T/C: 97.6%
Second compound 0.316 µM, first compound 0.00999 µM
  viability, T/C: 87.3%
[5]
  viability, T/C: 91.7%
Second compound 0.316 µM, first compound 0.0999 µM
  viability, T/C: 77.7%
[6]
  viability, T/C: 71.6%
Second compound 1 µM, first compound 0.000999 µM
  viability, T/C: 90%
Second compound 1 µM, first compound 0.00316 µM
  viability, T/C: 84.7%
Second compound 1 µM, first compound 0.00999 µM
  viability, T/C: 90.8%
[7]
  viability, T/C: 66.4%
Second compound 1 µM, first compound 0.0999 µM
  viability, T/C: 79.8%
[8]
  viability, T/C: 64.3%
Second compound 3.16 µM, first compound 0.000999 µM
  viability, T/C: 90.8%
Second compound 3.16 µM, first compound 0.00316 µM
  viability, T/C: 89.9%
Second compound 3.16 µM, first compound 0.00999 µM
  viability, T/C: 80.8%
[9]
  viability, T/C: 62.8%
Second compound 3.16 µM, first compound 0.0999 µM
  viability, T/C: 82%
[10]
  viability, T/C: 64.6%
Second compound 10 µM, first compound 0.000999 µM
  viability, T/C: 76.1%
Second compound 10 µM, first compound 0.00316 µM
  viability, T/C: 74.6%
Second compound 10 µM, first compound 0.00999 µM
  viability, T/C: 72.5%
[11]
  viability, T/C: 63.8%
Second compound 10 µM, first compound 0.0999 µM
  viability, T/C: 57.8%
[12]
  viability, T/C: 58.9%
